Structures can show the parent of a compound that is named as a salt. Where two headings read alike, the source gives them in different places.

This passage reports IC50 results from patent publication US9187449B2, “Compounds with increased specificity for the treatment of glioma” (University of Tennessee Research Foundation, priority 2013, dated 2015).

Common to all, as to assay type: cell-based
For assay [1], the system named is A172. Kind of assay: MTT cell viability assay, A172 glioma cells. The settings on record: human glioma cell line A172, five days exposure, mean of triplicate experiments, read-out: Mean IC50 ± SD, A172. From the text:
(§1) The synthesized THI analogs were screened for their efficacy against established human glioma cell lines using the MTT colorimetric assay. This assay measures cell viability by quantitating purple formazan crystal formation caused by the reduction of tetrazolium salts in metabolically active cells. The inventors performed a series of experiments to determine the best concentration range for each compound to generate a half-maximal inhibitory concentration (IC50). The IC50 value for each compound represents the mean of triplicate experiments. Primary astrocytes established from the cortices of normal mouse pups were used as the model system to represent the degree of toxicity that would be expected in normal astrocytes in the human brain. The glioma cells and normal astrocytes were exposed to escalating concentrations of each THI compound for five days and then subjected to the MTT assay. Cell viability data at each concentration was used to calculate IC50 values.

The test system of assay [2] is U87. Kind of assay: MTT cell viability assay, U87 glioma cells. The settings on record: human glioma cell line U87, five days exposure, mean of triplicate experiments, read-out: Mean IC50 ± SD, U87.
Excerpt: as §1

Assay [3] has as its system T98G. Kind of assay: MTT cell viability assay, T98G glioma cells. To be noted: human glioma cell line T98G, five days exposure, mean of triplicate experiments, read-out: Mean IC50 ± SD, T98G.
Excerpt: as §1
Background: Tetrazolium assays rely on reduction of a dye to a coloured formazan, in cell work by metabolically active cells.

The test system of assay [4] is LN18. Kind of assay: MTT cell viability assay, LN18 glioma cells. The settings on record: human glioma cell line LN18, five days exposure, mean of triplicate experiments, read-out: Mean IC50 ± SD, LN18.
Excerpt: as §1

Assay [5] relates to Normal astrocytes. Kind of assay: MTT cell viability assay, normal primary astrocytes (toxicity model). The settings on record: primary astrocyte cultures from normal mouse brains, five days exposure, mean of triplicate experiments, read-out: Mean IC50 ± SD, Normal astrocytes.
Excerpt: as §1

For orientation: IC50 means the concentration needed to halve the response being measured. For the compound `Cn1nnc2c(C(N)=O)ncn2c1=O` [TMZ, reference compound], the IC50 in assay [1] is 65.3 ± 12 µM; in assay [2], 49.1 ± 5.15 µM; in assay [3], 571 ± 50.4 µM; in assay [4], 392 ± 77.2 µM; in assay [5], greater than 1000 µM.

Turning to `COc1ccncc1-c1ccc(CCCC2NCCc3c(OC)ccc(OC)c32)cc1` (stereo not shown) [EDL-361 (13), 5,8-dimethoxy-1-(3-(4-(4-methoxypyridin-3-yl)phenyl)propyl)-1,2,3,4-tetrahydroisoquinoline dihydrochloride], the IC50 turned out to be 15.2 ± 0.98 µM in assay [1] (A 172, 120 h); 10.5 µM in assay [2] (U-87 MG, 120 h); 14.8 ± 0.68 µM in assay [3] (120 h); 11.7 ± 0.17 µM in assay [4] (LN-18, 120 h); 11.9 ± 0.56 µM in assay [5] (120 h).

As for `COc1ccncc1-c1ccc(CC2NCCc3c(OC)ccc(OC)c32)cc1` (stereo not shown) [EDL-358 (11), 5,8-dimethoxy-1-(4-(4-methoxypyridin-3-yl)benzyl)-1,2,3,4-tetrahydroisoquinoline dihydrochloride], the IC50 is 8.25 µM in assay [1] (A 172, 120 h); 16.2 µM in assay [2] (U-87 MG, 120 h); 13.8 µM in assay [3] (120 h); 13.7 µM in assay [4] (LN-18, 120 h); 24.6 ± 0.79 µM in assay [5] (120 h).

On to `COc1cc2c(cc1OC)C(Cc1ccc(-c3cnccc3OC)cc1)NCC2` (stereo not shown) [EDL-291 (9)], for which the IC50 stood at 41.2 µM in assay [1]; 66.5 ± 1.12 µM in assay [2]; 59.5 ± 7.61 µM in assay [3]; 37 µM in assay [4]; 51.1 ± 1.38 µM in assay [5].

`COc1ccncc1-c1ccc(CCC2NCCc3c(OC)ccc(OC)c32)cc1` (stereo not shown) [EDL-360 (12), 5,8-dimethoxy-1-(4-(4-methoxypyridin-3-yl)phenethyl)-1,2,3,4-tetrahydroisoquinoline dihydrochloride]: the IC50 in assay [1] (A 172, 120 h) worked out at 5.6 µM; in assay [2] (U-87 MG, 120 h) it was 8.4 µM; in assay [3] (120 h), 10.4 µM; in assay [4] (LN-18, 120 h) it was 5.42 µM; in assay [5] (120 h) it was 19.7 ± 2.44 µM.
